{"source": "patent US20250387449A1", "about": "“PHARMACEUTICAL COMBINATION COMPRISING AN IBAT INHIBITOR AND A BILE ACID BINDER” (Albireo AB, priority 2010, published 2025)", "key": {"[1]": {"experiment": "Phase IIb placebo-controlled dose-finding study in patients with Chronic Idiopathic Constipation: adverse events", "format": "in vivo, human", "conditions": "Example 14 plus colonic delivery of 400 mg colesevelam 3 times a day"}, "[2]": {"experiment": "Phase IIb placebo-controlled dose-finding study in patients with Chronic Idiopathic Constipation: adverse events", "format": "in vivo, human", "conditions": "56 days treatment", "protocol": "A Phase IIb, Double-blind, Randomized, Placebo-controlled, Multi-centre, Dose-finding, Efficacy and Safety Study of a Range of Doses of the compound of Example 14 in about 200 patients with Chronic Idiopathic Constipation, where patients were treated for 56 days, was performed. The patients were males or non-pregnant females ≥20 years of age and ≤80 years of age, having a body mass index (BMI) ≥18.5 but <35.\nAll patients with adverse events of diarrhea and abdominal pain type related to treatment with the compound of Example 14 are presented in table 2."}}}
{"molecule": "CCCCC1(CCCC)CN(c2ccccc2)c2cc(SC)c(OCC(=O)N[C@@H](C(=O)NCC(=O)O)c3ccccc3)cc2S(=O)(=O)C1", "note": "[Example 14, 1,1-Dioxo-3,3-dibutyl-5-phenyl-7-methylthio-8-(N—{(R)-1′-phenyl-1′-[N′-(carboxymethyl)-carbamoyl]methyl}carbamoylmethoxy)-2,3,4,5-tetrahydro-1,5-benzothiazepine]", "values": [{"measurement": "bile acid dependent side effects generated from colon (diarrhoea, abdominal pain)", "setting": "[1]", "result": "effectively block bile acid side effects generated from the colon"}, {"measurement": "Abdominal Pain, % of Population", "setting": "[2]; 5 mg", "result": "10.4 % of Population"}, {"measurement": "Abdominal Pain, Number of Patients", "setting": "[2]; 5 mg", "result": 5}, {"measurement": "Diarrhoea, % of Population", "setting": "[2]; 5 mg", "result": "8.3 % of Population"}, {"measurement": "Diarrhoea, Number of Patients", "setting": "[2]; 5 mg", "result": 4}, {"measurement": "Abdominal Pain, % of Population", "setting": "[2]; 10 mg", "result": "10.6 % of Population"}, {"measurement": "Abdominal Pain, Number of Patients", "setting": "[2]; 10 mg", "result": 5}, {"measurement": "Diarrhoea, % of Population", "setting": "[2]; 10 mg", "result": "10.6 % of Population"}, {"measurement": "Diarrhoea, Number of Patients", "setting": "[2]; 10 mg", "result": 5}, {"measurement": "Abdominal Pain, % of Population", "setting": "[2]; 15 mg", "result": "27.1 % of Population"}, {"measurement": "Abdominal Pain, Number of Patients", "setting": "[2]; 15 mg", "result": 13}, {"measurement": "Diarrhoea, % of Population", "setting": "[2]; 15 mg", "result": "16.7 % of Population"}, {"measurement": "Diarrhoea, Number of Patients", "setting": "[2]; 15 mg", "result": 8}]}
